Laboratory results published in patent US20260001875A1, “AMINOPYRIMIDINYL DERIVATIVES FOR THE TREATMENT OF PARKINSON'S DISEASE” (UNIVERSITY OF DUNDEE, priority 2022, published 2026).
pEC50: −log10 of the molar value.

System: Rab10 pThr73
Test: Rab10 Thr73 dephosphorylation in LRRK2^R1441C MEFs
Assay type: cell-based
Details: Mus musculus; dose response, 4 h treatment
Description: Primary MEFs were generated as described in a previous study (Wiggin et al., Mol. Cell Biol. 2002 April; 22(8):2871-81.). Briefly, the uterine horn was collected from adult female mice at day E12.5 and transferred to a 10 cm tissue culture dish containing cold PBS. Two forceps were used to tear the yolk sacs to isolate each embryo. Forceps were cleaned thoroughly with 70% ethanol between each embryo isolation. The embryos were culled, and a tissue piece was collected in a PCR tube for genotyping. The red tissue of the embryo, which grows to become the heart and liver, was removed. The remainder of the embryo was minced with a scalpel blade and incubated with 7.5 ml trypsin-EDTA solution for 10 minutes in a 37° C. tissue culture CO2 incubator. The dish was removed from the incubator and checked under a light microscope for single cells. 7.5 ml complete media was added to the trypsinised cells, and the cell suspension was transferred to a 15 ml Falcon tube, centrifuged at 1200 rpm for 5 minutes at room temperature. […]
Culturing and passaging of adherent cell lines were carried out using aseptic technique in CL1 or CL2 (for PBMC isolation) biological safety cabinets. […] The cell pellet was discarded, and supernatant was collected for analysis by quantitative immunoblotting. […] Protein concentrations of cell lysates were determined using the Bradford assay. […]

| Structure (SMILES) | pEC50 |
| --- | --- |
| CNc1nc(Nc2ccc(C(=O)N3CCN(C[C@H]4CC[C@H](CSC(C)(C)[C@H](NC(=O)C5(F)CC5)C(=O)N5C[C@H](O)CC5C(=O)NCc5ccc(-c6scnc6C)cc5)CC4)CC3)cc2OC)ncc1Cl (stereo partly drawn) [XL01126, (2S,4R)-1-((R)-3-((((1R,4R)-4-((4-(4-((5-chloro-4-(methylamino)pyrimidin-2-yl)amino)-3-methoxybenzoyl)piperazin-1-yl)methyl)cyclohexyl)methyl)thio)-2-(1-fluorocyclopropane-1-carboxamido)-3-methylbutanoyl)-4-hydroxy-N-(4-(4-methylthiazol-5-yl)benzyl)pyrrolidine-2-carboxamide] | 7.52 |
| CNc1nc(Nc2ccc(C(=O)N3CCN(C[C@H]4CC[C@H](CSC(C)(C)[C@H](NC(=O)C5(F)CC5)C(=O)N5C[C@@H](O)CC5C(=O)NCc5ccc(-c6scnc6C)cc5)CC4)CC3)cc2OC)ncc1Cl (stereo partly drawn) [Cis-XL01126, (2S,4S)-1-((R)-3-((((1r,4R)-4-((4-(4-((5-chloro-4-(methylamino)pyrimidin-2-yl)amino)-3-methoxybenzoyl)piperazin-1-yl)methyl)cyclohexyl)methyl)thio)-2-(1-fluorocyclopropane-1-carboxamido)-3-methylbutanoyl)-4-hydroxy-N-(4-(4-methylthiazol-5-yl)benzyl)pyrrolidine-2-carboxamide] | 6.80 |
